Numbers after ± are expanded uncertainties.

Viscosity and mass density data for four compounds are collected here from the NIST ThermoML archive (doi:10.1021/acs.jced.7b00944).

For this series the following is noted: 298.2 K, 101.33 kPa, Liquid; for viscosity: Falling or rolling sphere viscometry; for mass density: Vibrating tube method.

Regarding `C=CC(C)(O)CCC=C(C)C` (stereo not drawn) [3,7-dimethyl-1,6-octadien-3-ol], the viscosity was 4.238 ± 0.51 mPa·s and the mass density is recorded as 856.25 ± 6.1 kg/m3.

Regarding `OCC(O)CO` [glycerol], the viscosity is reported as 873.6 ± 140 mPa·s and the mass density was 1257.7 ± 6.1 kg/m3.

On to `CCO` [ethanol], for which the viscosity was determined as 1.04 ± 0.12 mPa·s and the mass density is listed as 786.1 ± 6 kg/m3.

`C=C(C)[C@H]1CC=C(C)CC1` [(R)-1-methyl-4-(1-methylethenyl)cyclohexene]: the viscosity turned out to be 0.972 ± 0.12 mPa·s and the mass density worked out at 840.73 ± 6 kg/m3.
